Test results as given in ChEMBL document CHEMBL4311964, “Potent combretastatin A-4 analogs containing 1,2,4-triazole: Synthesis, antiproliferative, anti-tubulin activity, and docking study” (Eur J Med Chem, 2019).

Columns and labels:
HepG2 [1] = experiment: Antiproliferative activity against human HepG2 cells assessed as cell growth inhibition measured after 48 hrs by MTT assay; assay type: functional, cell-based; settings: HepG2, 48 h
HL-60 = experiment: Antiproliferative activity against human HL60 cells assessed as cell growth inhibition measured after 48 hrs by MTT assay; assay type: functional, cell-based; settings: HL-60, 48 h
MCF7 = experiment: Antiproliferative activity against human MCF7 cells assessed as cell growth inhibition measured after 48 hrs by MTT assay; assay type: functional, cell-based; settings: MCF7, 48 h
Tubulin [2] = target: Tubulin (Sus scrofa, UniProt P02554+P02550); experiment: Inhibition of porcine brain tubulin polymerization assessed as decrease in fluorescence intensity measured every 60 sec for 90 mins in presence of GTP by DAPI staining based fluorescence assay
[3] = target: Tubulin beta (Homo sapiens) (UniProt P68371+Q9H4B7+Q13509+P04350+Q3ZCM7+P07437+Q13885+Q9BVA1+Q9BUF5+A6NNZ2); experiment: Inhibition of tubulin beta polymerization in human HepG2 cells at IC50 using TMB substrate preincubated for 2 hrs followed by substrate addition measured after 15 to 20 mins in presence of GTP by ELISA relative to control; assay type: cell-based
Tubulin [4] = target: Tubulin (Bos taurus, UniProt Q6B856+Q862L2+Q862F3); experiment: Inhibition of [3H] colchicine binding to bovine brain tubulin incubated for 30 mins by scintillation proximity assay
HepG2 [5] = experiment: Cell cycle arrest in human HepG2 cells assessed as accumulation at G0/G1 phase at IC50 concentration by DNase/propidium iodide staining based flow cytometry analysis (reference value: 57.43 %); assay type: functional
HepG2 [6] = experiment: Cell cycle arrest in human HepG2 cells assessed as accumulation at S phase at IC50 concentration by DNase/propidium iodide staining based flow cytometry analysis (reference value: 32.51 %); assay type: functional
HepG2 [7] = experiment: Cell cycle arrest in human HepG2 cells assessed as accumulation at G2/M phase at IC50 concentration by DNase/propidium iodide staining based flow cytometry analysis (reference value: 10.06 %); assay type: functional
HepG2 [8] = experiment: Cell cycle arrest in human HepG2 cells assessed as accumulation at pre-G1 phase at IC50 concentration by DNase/propidium iodide staining based flow cytometry analysis (reference value: 1.59 %); assay type: functional
HepG2 [9] = experiment: Induction of apoptosis in human HepG2 cells assessed as viable cells at IC50 concentration by annexinV-FITC/propidium iodide staining based flow cytometry (reference value: 98.41 %); assay type: functional
HepG2 [10] = experiment: Induction of apoptosis in human HepG2 cells assessed as early apoptotic cells at IC50 concentration by annexinV-FITC/propidium iodide staining based flow cytometry (reference value: 0.69 %); assay type: functional
HepG2 [11] = experiment: Induction of apoptosis in human HepG2 cells assessed as late apoptotic cells at IC50 concentration by annexinV-FITC/propidium iodide staining based flow cytometry (reference value: 0.38 %); assay type: functional
HepG2 [12] = experiment: Induction of apoptosis in human HepG2 cells assessed as necrotic cells at IC50 concentration by annexinV-FITC/propidium iodide staining based flow cytometry (reference value: […]); assay type: functional
HepG2 [13] = experiment: Induction of apoptosis in human HepG2 cells assessed as activation of caspase 3 measured after 0.5 to 1 hrs by fluorescence assay relative to control; assay type: functional

| Structure (SMILES) | IC50 (HepG2 [1]) | IC50 (HL-60) | IC50 (MCF7) | other results |
| --- | --- | --- | --- | --- |
| COc1cccc(NC(=O)c2nc(-c3cc(OC)c(OC)c(OC)c3)n(-c3ccc(F)c(Cl)c3)n2)c1 | 560 nM | 800 nM | 440 nM |  |
| COc1cc(-c2nc(C(=O)Nc3ccc(C(=O)O)cc3)nn2-c2ccc(F)c(Cl)c2)cc(OC)c1OC | 1590 nM | 1180 nM | 50 nM |  |
| COc1cc(-c2nc(C(=O)Nc3ccccc3)nn2-c2ccc(F)c(Cl)c2)cc(OC)c1OC | 2230 nM | 1000 nM | 170 nM |  |
| COc1ccc(NC(=O)c2nc(-c3cc(OC)c(OC)c(OC)c3)n(-c3ccc(F)c(Cl)c3)n2)cc1 | 750 nM | 2260 nM | 650 nM |  |
| COc1ccc(NC(=O)c2nc(-c3cc(OC)c(OC)c(OC)c3)n(-c3ccc(F)c(Cl)c3)n2)cc1Cl | 2140 nM | 700 nM | 1010 nM |  |
| COc1ccccc1NC(=O)c1nc(-c2cc(OC)c(OC)c(OC)c2)n(-c2ccc(F)c(Cl)c2)n1 | 350 nM | 4 nM | 1510 nM | IC50 (Tubulin [2]): 1030 nM; inhibition [3]: 62%; IC50 (Tubulin [4]): 3580 nM; Kd (Tubulin [4]): 540 nM; Ki (Tubulin [4]): 260 nM; Activity (HepG2 [5]): 34.77%; Activity (HepG2 [6]): 24.67%; Activity (HepG2 [7]): 40.56%; Activity (HepG2 [8]): 19.22%; Activity (HepG2 [9]): 80.78%; Activity (HepG2 [10]): 5.24%; Activity (HepG2 [11]): 11.32%; Activity (HepG2 [12]): 2.66%; fold change (FC) (HepG2 [13]): 7 |
| CCOc1ccc(NC(=O)c2nc(-c3cc(OC)c(OC)c(OC)c3)n(-c3ccc(F)c(Cl)c3)n2)cc1 | 1490 nM | 600 nM | 520 nM |  |
| COc1cc(-c2nc(C(=O)Nc3ccc(F)c(F)c3F)nn2-c2ccc(F)c(Cl)c2)cc(OC)c1OC | 410 nM | 1320 nM | 140 nM |  |
| COc1cc(-c2nc(C(=O)Nc3ccc(F)cc3)nn2-c2ccc(F)c(Cl)c2)cc(OC)c1OC | 520 nM | 300 nM | 180 nM |  |
| COc1ccc(-n2nc(C(=O)Nc3ccc(OC(F)(F)F)cc3)nc2-c2cc(OC)c(OC)c(OC)c2)cc1Cl | 7110 nM | 810 nM | 39 nM |  |
| COc1cc(-c2nc(C(=O)Nc3ccc(F)c(Cl)c3)nn2-c2ccc(F)c(Cl)c2)cc(OC)c1OC | 900 nM | 5470 nM | 120 nM |  |
| COc1ccc(-n2nc(C(=O)Nc3ccc(F)c(F)c3F)nc2-c2cc(OC)c(OC)c(OC)c2)cc1Cl | 40 nM | 2660 nM | 2100 nM | IC50 (Tubulin [2]): 760 nM; inhibition [3]: 82%; Activity (HepG2 [5]): 26.31%; Activity (HepG2 [6]): 18.61%; Activity (HepG2 [7]): 55.08%; Activity (HepG2 [8]): 31.04%; Activity (HepG2 [9]): 68.96%; Activity (HepG2 [10]): 6.06%; Activity (HepG2 [11]): 22.2%; Activity (HepG2 [12]): 2.78%; fold change (FC) (HepG2 [13]): 9 |
| COc1ccc(C)cc1NC(=O)c1nc(-c2cc(OC)c(OC)c(OC)c2)n(-c2ccc(F)c(Cl)c2)n1 | 2820 nM | 1820 nM | 130 nM |  |
| COc1cc(-c2nc(C(=O)Nc3cccc(F)c3)nn2-c2ccc(F)c(Cl)c2)cc(OC)c1OC | 990 nM | 620 nM | 110 nM |  |
| COc1cc(-c2nc(C(=O)Nc3cc(F)cc(F)c3)nn2-c2ccc(F)c(Cl)c2)cc(OC)c1OC | 710 nM | 3750 nM | 4910 nM |  |
| COc1cc(-c2nc(C(=O)Nc3ccc(OC(F)(F)F)cc3)nn2-c2ccc(F)c(Cl)c2)cc(OC)c1OC | 100 nM | 160 nM | 310 nM |  |
| COc1ccc(NC(=O)c2nc(-c3cc(OC)c(OC)c(OC)c3)n(-c3ccc(F)c(Cl)c3)n2)c(C)c1 | 580 nM | 360 nM | 1560 nM |  |
| COc1ccc(-n2nc(C(=O)Nc3ccc(F)c(Cl)c3)nc2-c2cc(OC)c(OC)c(OC)c2)cc1Cl | 680 nM | 230 nM | 30 nM | IC50 (Tubulin [2]): 700 nM; inhibition [3]: 73%; IC50 (Tubulin [4]): 2110 nM; Kd (Tubulin [4]): 320 nM; Ki (Tubulin [4]): 150 nM |
| COc1cc(-c2nc(C(=O)Nc3ccccc3F)nn2-c2ccc(F)c(Cl)c2)cc(OC)c1OC | 12700 nM | 10 nM | 190 nM |  |
